Legend:
[1] = biological target: Sigma non-opioid intracellular receptor 1 (Homo sapiens, UniProt Q99720); test: GPCRScan assay: inhibition of Sigma 1; parameters: radioligand conc. used [nm] 4.0 – 5.0, parental cells HEKT
[2] = biological target: Cholecystokinin receptor type A (Homo sapiens) (UniProt P32238); test: CCK1 (CCKA) (h) Eurofins-Cerep binding assay; conditions: filed as agonist, Compound concentration 10.0 uM
[3] = biological target: Endothelin receptor type B (Homo sapiens) (UniProt P24530); test: ETB (h) Eurofins-Cerep binding assay; parameters: ligand concentration 0.03 nM; conditions: filed as agonist, Compound concentration 10.0 uM
[4] = biological target: GABA-A receptor; alpha-1/beta-2/gamma-2 (Homo sapiens) (UniProt P14867+P47870+P18507); test: GABAA1 (h) (alpha1,beta2,gamma2) Eurofins-Cerep binding assay; type: protein-complex assay; parameters: ligand concentration 15 nM; conditions: filed as agonist, Compound concentration 10.0 uM
[5] = biological target: 5-hydroxytryptamine receptor 2B (Homo sapiens) (UniProt P41595); test: 5-HT2B (h) Eurofins-Cerep binding assay; parameters: ligand concentration 0.2 nM; conditions: filed as agonist, Compound concentration 10.0 uM
[6] = biological target: Androgen receptor (Homo sapiens) (UniProt P10275); test: AR (h) Eurofins-Cerep binding assay; parameters: ligand concentration 1 nM; conditions: filed as agonist, Compound concentration 10.0 uM
[7] = biological target: voltage-gated Na+ channel (site 2) (Rattus norvegicus, UniProt F1LQQ7+O08562+O88420+O88457+P04774+P04775+P08104+P15389+P15390+Q62968); test: Na+ channel (site 2) Eurofins-Cerep binding assay; type: protein assay; parameters: incubation time 60 min, incubation temperature 37°C, ligand concentration 10 nM; conditions: rat cerebral cortex, probe [3H]batrachotoxin (10 nM), compound concentration 10 uM, read-out: % Inhibition of Control Specific Binding (Mean n=2)
[8] = biological target: Activin receptor type-1 (Homo sapiens) (UniProt Q04771); conditions: Compound concentration 1000.0 nM
[9] = biological target: RAC-alpha serine/threonine-protein kinase (Homo sapiens) (UniProt P31749); conditions: Compound concentration 1000.0 nM
[10] = biological target: Aurora kinase A (Homo sapiens) (UniProt O14965); conditions: Compound concentration 1000.0 nM
[11] = biological target: Cyclin-dependent kinase 11A (Homo sapiens) (UniProt Q9UQ88); conditions: Compound concentration 1000.0 nM
[12] = biological target: Dual specificity protein kinase CLK1 (Homo sapiens) (UniProt P49759); conditions: Compound concentration 1000.0 nM
[13] = biological target: Casein kinase I isoform gamma-1 (Homo sapiens) (UniProt Q9HCP0); conditions: Compound concentration 1000.0 nM
[14] = biological target: Serine/threonine-protein kinase DCLK2 (Homo sapiens) (UniProt Q8N568); conditions: Compound concentration 1000.0 nM
[15] = biological target: Dual specificity tyrosine-phosphorylation-regulated kinase 1A (Homo sapiens) (UniProt Q13627); conditions: Compound concentration 1000.0 nM
[16] = biological target: Fibroblast growth factor receptor 3 (Homo sapiens) (UniProt P22607); conditions: Compound concentration 1000.0 nM
[17] = biological target: Tyrosine-protein kinase FRK (Homo sapiens) (UniProt P42685); conditions: Compound concentration 1000.0 nM
[18] = tested on: eIF-2-alpha kinase GCN2 (Homo sapiens), Q9P2K8 [S808G]; conditions: Compound concentration 1000.0 nM
[19] = biological target: Serine/threonine-protein kinase haspin (Homo sapiens) (UniProt Q8TF76); conditions: Compound concentration 1000.0 nM
[20] = biological target: Homeodomain-interacting protein kinase 2 (Homo sapiens) (UniProt Q9H2X6); conditions: Compound concentration 1000.0 nM
Chain of Homeodomain-interacting protein kinase 2 (Homo sapiens) (Q9H2X6 whole entry, looked up): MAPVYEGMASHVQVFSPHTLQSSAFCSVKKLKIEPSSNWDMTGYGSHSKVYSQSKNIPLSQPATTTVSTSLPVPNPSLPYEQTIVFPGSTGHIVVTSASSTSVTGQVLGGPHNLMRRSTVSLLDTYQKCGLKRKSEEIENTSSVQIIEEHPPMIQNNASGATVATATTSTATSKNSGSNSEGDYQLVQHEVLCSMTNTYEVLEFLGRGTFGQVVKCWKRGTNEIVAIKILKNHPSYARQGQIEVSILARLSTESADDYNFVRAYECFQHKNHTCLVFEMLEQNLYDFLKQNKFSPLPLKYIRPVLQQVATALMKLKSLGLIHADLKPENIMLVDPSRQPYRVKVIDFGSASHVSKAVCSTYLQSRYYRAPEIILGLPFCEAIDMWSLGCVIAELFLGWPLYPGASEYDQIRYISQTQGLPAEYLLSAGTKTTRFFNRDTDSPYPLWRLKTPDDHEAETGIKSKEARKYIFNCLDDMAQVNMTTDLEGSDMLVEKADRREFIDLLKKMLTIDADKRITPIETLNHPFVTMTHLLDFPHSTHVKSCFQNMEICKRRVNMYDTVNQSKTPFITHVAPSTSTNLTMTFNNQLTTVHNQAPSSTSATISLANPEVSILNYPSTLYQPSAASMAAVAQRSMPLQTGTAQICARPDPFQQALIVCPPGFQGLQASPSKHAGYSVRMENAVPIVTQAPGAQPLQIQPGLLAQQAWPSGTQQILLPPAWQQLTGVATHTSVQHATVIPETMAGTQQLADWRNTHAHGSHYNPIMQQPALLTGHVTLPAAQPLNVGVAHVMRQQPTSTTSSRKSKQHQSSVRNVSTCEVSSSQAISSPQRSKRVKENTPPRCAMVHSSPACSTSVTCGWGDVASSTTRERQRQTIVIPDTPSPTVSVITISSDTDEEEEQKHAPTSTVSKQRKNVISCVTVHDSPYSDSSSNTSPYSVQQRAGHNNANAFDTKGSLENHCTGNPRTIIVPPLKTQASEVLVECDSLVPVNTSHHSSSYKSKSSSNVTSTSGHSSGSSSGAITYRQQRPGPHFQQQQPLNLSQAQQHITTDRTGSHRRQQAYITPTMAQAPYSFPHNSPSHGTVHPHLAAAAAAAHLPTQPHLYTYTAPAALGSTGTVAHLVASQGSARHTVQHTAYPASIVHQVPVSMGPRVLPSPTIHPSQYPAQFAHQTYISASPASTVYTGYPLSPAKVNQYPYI

[21] = biological target: Mitogen-activated protein kinase kinase kinase kinase 3 (Homo sapiens) (UniProt Q8IVH8); conditions: Compound concentration 1000.0 nM
Chain of Mitogen-activated protein kinase kinase kinase kinase 3 (Homo sapiens) (Q8IVH8 whole entry): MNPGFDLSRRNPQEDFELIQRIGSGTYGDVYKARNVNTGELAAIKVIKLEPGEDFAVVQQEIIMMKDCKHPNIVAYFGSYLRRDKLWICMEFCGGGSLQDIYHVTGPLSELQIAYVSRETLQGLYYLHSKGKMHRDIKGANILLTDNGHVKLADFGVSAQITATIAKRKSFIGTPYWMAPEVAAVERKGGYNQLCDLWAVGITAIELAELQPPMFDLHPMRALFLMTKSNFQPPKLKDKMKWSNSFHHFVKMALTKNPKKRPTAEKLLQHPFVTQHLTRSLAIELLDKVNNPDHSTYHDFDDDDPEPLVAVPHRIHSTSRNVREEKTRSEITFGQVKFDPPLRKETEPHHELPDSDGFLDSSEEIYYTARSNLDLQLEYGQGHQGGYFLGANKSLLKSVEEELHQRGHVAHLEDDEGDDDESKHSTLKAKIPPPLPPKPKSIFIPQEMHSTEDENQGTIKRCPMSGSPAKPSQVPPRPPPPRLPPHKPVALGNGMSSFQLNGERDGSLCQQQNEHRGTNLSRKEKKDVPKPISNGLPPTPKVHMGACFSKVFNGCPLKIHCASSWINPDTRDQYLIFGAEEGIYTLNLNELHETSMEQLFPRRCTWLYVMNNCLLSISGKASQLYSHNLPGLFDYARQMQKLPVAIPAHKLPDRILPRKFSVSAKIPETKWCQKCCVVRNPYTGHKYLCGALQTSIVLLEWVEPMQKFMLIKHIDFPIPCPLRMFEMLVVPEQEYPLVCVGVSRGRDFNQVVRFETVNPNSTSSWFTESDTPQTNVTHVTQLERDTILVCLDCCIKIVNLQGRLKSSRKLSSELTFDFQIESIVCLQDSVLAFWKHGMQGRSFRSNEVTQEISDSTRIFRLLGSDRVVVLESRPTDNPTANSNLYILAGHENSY

[22] = tested on: Hepatocyte growth factor receptor (Homo sapiens), P08581 [M1250T]; conditions: Compound concentration 1000.0 nM
[23] = biological target: Myosin light chain kinase family member 4 (Homo sapiens) (UniProt Q86YV6); conditions: Compound concentration 1000.0 nM
[24] = biological target: Serine/threonine-protein kinase Nek7 (Homo sapiens) (UniProt Q8TDX7); conditions: Compound concentration 1000.0 nM
Chain of Serine/threonine-protein kinase Nek7 (Homo sapiens) (Q8TDX7 whole entry, looked up): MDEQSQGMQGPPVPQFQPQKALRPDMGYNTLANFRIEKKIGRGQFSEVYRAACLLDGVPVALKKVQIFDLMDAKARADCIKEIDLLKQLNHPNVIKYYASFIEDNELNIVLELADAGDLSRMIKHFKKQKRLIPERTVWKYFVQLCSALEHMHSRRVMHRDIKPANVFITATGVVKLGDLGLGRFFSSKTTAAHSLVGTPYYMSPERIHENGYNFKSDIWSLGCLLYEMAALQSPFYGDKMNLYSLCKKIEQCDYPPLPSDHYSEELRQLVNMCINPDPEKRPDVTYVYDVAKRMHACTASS

[25] = biological target: Cyclin-dependent kinase 17 (Homo sapiens) (UniProt Q00537); conditions: Compound concentration 1000.0 nM
[26] = biological target: Cyclin-dependent kinase 18 (Homo sapiens) (UniProt Q07002); conditions: Compound concentration 1000.0 nM
[27] = biological target: 3-phosphoinositide-dependent protein kinase 1 (Homo sapiens) (UniProt O15530); conditions: Compound concentration 1000.0 nM
Chain of 3-phosphoinositide-dependent protein kinase 1 (Homo sapiens) (O15530 whole entry): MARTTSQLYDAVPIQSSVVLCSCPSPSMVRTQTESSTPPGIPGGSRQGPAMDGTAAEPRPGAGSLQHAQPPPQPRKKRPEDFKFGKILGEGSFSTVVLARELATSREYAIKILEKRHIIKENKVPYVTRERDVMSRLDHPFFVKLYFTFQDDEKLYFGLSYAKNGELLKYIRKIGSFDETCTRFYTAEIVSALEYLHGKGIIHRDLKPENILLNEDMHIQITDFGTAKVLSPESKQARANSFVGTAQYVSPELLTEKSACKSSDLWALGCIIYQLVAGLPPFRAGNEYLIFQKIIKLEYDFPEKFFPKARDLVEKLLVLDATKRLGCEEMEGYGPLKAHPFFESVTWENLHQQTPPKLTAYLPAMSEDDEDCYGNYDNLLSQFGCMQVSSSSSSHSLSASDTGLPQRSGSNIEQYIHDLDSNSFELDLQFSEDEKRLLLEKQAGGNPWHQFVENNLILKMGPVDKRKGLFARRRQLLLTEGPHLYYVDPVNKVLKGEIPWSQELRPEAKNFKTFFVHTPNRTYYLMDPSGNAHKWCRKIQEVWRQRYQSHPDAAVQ

[28] = biological target: Cyclin-dependent kinase 2 homolog (Plasmodium falciparum (isolate 3D7)) (UniProt P61075); conditions: Compound concentration 1000.0 nM
[29] = biological target: Phosphorylase b kinase regulatory subunit alpha, liver isoform (Homo sapiens) (UniProt P46019); conditions: Compound concentration 1000.0 nM
[30] = biological target: Phosphatidylinositol 4-phosphate 5-kinase type-1 alpha (Homo sapiens) (UniProt Q99755); conditions: Compound concentration 1000.0 nM
[31] = biological target: Serine/threonine-protein kinase SIK3 (Homo sapiens) (UniProt Q9Y2K2); conditions: Compound concentration 1000.0 nM
[32] = tested on: Proto-oncogene tyrosine-protein kinase receptor Ret (Homo sapiens), P07949 [V804L]; conditions: Compound concentration 1000.0 nM
[33] = biological target: Ribosomal protein S6 kinase alpha-4 (Homo sapiens) (UniProt O75676); conditions: Compound concentration 1000.0 nM
[34] = biological target: Serine/threonine-protein kinase Sgk3 (Homo sapiens) (UniProt Q96BR1); conditions: Compound concentration 1000.0 nM
[35] = biological target: SRSF protein kinase 1 (Homo sapiens) (UniProt Q96SB4); conditions: Compound concentration 1000.0 nM
Chain of SRSF protein kinase 1 (Homo sapiens) (Q96SB4 whole entry): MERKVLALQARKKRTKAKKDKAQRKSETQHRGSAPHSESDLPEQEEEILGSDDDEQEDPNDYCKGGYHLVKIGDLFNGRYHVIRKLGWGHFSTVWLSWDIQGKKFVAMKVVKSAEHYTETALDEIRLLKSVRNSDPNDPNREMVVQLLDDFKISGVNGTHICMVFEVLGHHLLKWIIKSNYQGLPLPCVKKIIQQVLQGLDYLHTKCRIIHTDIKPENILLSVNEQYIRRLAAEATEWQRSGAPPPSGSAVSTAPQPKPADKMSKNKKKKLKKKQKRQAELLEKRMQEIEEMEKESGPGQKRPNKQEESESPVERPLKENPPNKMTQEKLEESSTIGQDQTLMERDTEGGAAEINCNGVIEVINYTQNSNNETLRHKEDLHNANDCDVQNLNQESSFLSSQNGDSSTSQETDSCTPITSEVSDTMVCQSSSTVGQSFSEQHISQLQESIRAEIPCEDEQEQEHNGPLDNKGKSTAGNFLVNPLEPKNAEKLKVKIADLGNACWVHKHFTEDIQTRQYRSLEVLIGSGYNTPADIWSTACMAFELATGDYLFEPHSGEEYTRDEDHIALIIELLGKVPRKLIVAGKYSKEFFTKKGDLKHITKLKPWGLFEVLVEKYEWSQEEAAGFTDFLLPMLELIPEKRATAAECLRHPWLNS

[36] = biological target: Serine/threonine-protein kinase tousled-like 1 (Homo sapiens) (UniProt Q9UKI8); conditions: Compound concentration 1000.0 nM
Chain of Serine/threonine-protein kinase tousled-like 1 (Homo sapiens) (Q9UKI8 whole entry): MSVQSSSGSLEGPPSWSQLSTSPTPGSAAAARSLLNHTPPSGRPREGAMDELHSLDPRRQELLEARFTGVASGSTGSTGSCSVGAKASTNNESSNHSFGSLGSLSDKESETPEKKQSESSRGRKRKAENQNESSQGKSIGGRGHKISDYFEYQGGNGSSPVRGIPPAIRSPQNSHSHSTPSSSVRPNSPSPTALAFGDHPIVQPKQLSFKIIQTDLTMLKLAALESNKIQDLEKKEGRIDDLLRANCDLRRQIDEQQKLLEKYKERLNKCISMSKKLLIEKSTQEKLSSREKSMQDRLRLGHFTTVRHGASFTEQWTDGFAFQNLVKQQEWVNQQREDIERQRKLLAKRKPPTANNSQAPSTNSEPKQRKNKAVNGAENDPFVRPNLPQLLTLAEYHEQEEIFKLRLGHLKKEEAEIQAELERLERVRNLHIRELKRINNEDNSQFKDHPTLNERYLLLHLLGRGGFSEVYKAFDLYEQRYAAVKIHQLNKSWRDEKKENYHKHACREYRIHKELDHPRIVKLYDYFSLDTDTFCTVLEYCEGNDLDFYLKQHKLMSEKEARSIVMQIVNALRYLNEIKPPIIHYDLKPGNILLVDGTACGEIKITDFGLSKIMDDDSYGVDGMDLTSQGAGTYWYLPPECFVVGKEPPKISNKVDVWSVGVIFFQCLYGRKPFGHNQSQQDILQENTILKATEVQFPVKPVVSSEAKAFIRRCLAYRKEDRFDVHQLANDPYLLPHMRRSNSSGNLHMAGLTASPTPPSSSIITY

[37] = biological target: Serine/threonine-protein kinase VRK2 (Homo sapiens) (UniProt Q86Y07); conditions: Compound concentration 1000.0 nM
[38] = biological target: Wee1-like protein kinase (Homo sapiens) (UniProt P30291); conditions: Compound concentration 1000.0 nM
Chain of Wee1-like protein kinase (Homo sapiens) (P30291 whole entry, looked up): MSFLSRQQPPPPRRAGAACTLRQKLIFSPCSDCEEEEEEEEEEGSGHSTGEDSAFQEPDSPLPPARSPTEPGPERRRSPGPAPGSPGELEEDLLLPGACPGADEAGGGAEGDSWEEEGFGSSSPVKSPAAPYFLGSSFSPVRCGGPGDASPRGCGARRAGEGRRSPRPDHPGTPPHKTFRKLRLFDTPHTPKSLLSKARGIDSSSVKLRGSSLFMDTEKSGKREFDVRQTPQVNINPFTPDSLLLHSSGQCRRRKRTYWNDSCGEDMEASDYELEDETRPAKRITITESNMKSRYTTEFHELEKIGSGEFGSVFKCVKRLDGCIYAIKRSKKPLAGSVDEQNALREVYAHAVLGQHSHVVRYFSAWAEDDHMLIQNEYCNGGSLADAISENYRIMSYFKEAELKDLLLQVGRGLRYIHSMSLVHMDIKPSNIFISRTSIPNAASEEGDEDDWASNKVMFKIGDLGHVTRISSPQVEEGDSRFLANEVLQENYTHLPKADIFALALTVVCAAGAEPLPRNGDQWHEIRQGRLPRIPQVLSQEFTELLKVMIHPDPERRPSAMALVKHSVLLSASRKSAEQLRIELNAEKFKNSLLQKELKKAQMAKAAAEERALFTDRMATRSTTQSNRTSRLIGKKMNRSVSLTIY

[39] = biological target: Wee1-like protein kinase 2 (Homo sapiens) (UniProt P0C1S8); conditions: Compound concentration 1000.0 nM
[40] = biological target: 5-hydroxytryptamine receptor 1D (Homo sapiens) (UniProt P28221); conditions: Compound concentration 10.0 uM

| SMILES | Ki [1] [nM] | % Inhibition of Control Specific Binding (Mean n=2) [2] [%] | % Inhibition of Control Specific Binding (Mean n=2) [3] [%] | % Inhibition of Control Specific Binding (Mean n=2) [4] [%] | % Inhibition of Control Specific Binding (Mean n=2) [5] [%] | % Inhibition of Control Specific Binding (Mean n=2) [6] [%] | inhibition at 60 min, 10 µM [7] [%] | residual activity [8] [%] | residual activity [9] [%] | residual activity [10] [%] | residual activity [11] [%] | residual activity [12] [%] | residual activity [13] [%] | residual activity [14] [%] | residual activity [15] [%] | residual activity [16] [%] | residual activity [17] [%] | residual activity [18] [%] | residual activity [19] [%] | residual activity [20] [%] | further results |
| --- | --- | --- | --- | --- | --- | --- | --- | --- | --- | --- | --- | --- | --- | --- | --- | --- | --- | --- | --- | --- | --- |
| COc1ccc2c(c1)O[C@@H](c1ccc(OC)c(OC)c1)C[C@H]2NC(=O)C1(c2ccc3c(c2)OC(F)(F)O3)CC1 [A-1596586] | 315 | -51.6 | -9.1 | -27.5 | 8.5 | 7.1 | 35 | 100 | 100 | 92 | 100 | 100 | 99 | 86 | 80 | 89 | 100 | 95 | 81 | 96 | residual activity [21]: 90%; residual activity [22]: 95%; residual activity [23]: 97%; residual activity [24]: 100%; residual activity [25]: 100%; residual activity [26]: 100%; residual activity [27]: 100%; residual activity [28]: 84%; residual activity [29]: 82%; residual activity [30]: 72%; residual activity [31]: 82%; residual activity [32]: 95%; residual activity [33]: 94%; residual activity [34]: 84%; residual activity [35]: 95%; residual activity [36]: 84%; residual activity [37]: 67%; residual activity [38]: 99%; residual activity [39]: 100%; inhibition [40]: 4.36% |
| COc1ccc2c(c1)O[C@H](c1ccc(OC)c(OC)c1)C[C@@H]2NC(=O)C1(c2ccc3c(c2)OC(F)(F)O3)CC1 [A-1596584] | 2740 | -38.6 | -9 | -86.2 | -14.6 | -3.6 | 47.3 | 98 | 63 | 100 | 100 | 100 | 100 | 98 | 100 | 100 | 100 | 97 | 91 | 98 | residual activity [21]: 100%; residual activity [22]: 89%; residual activity [23]: 100%; residual activity [24]: 100%; residual activity [25]: 100%; residual activity [26]: 100%; residual activity [27]: 100%; residual activity [28]: 92%; residual activity [29]: 93%; residual activity [30]: 84%; residual activity [31]: 95%; residual activity [32]: 87%; residual activity [33]: 100%; residual activity [34]: 100%; residual activity [35]: 100%; residual activity [36]: 100%; residual activity [37]: 82%; residual activity [38]: 100%; residual activity [39]: 100%; inhibition [40]: 6.1% |
